Results from the supplement of paper PMC11451515.

Legend:
Details in all cases: 48 h
SEM cells [1] = assay: AUC of viability dose-response curve (% viability x log10 dose units); higher = less sensitive
How it was run: (§1)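 Medium-adapted leukemia cells in 1536-well plates, at 500 or 1000 cells/well, were incubated for 48 h at 37°C with library compounds in DMSO at 11 threefold doses from 47 μM to 0.79 nM. CellTiter-Glo One luminescence normalised per plate to DMSO and cell-free wells was fitted with a four-parameter log-logistic model over log10 doses. Area under the curve was integrated from this fit by trapezoidal rule, with curves beyond full viability scaled and failed quality-control curves removed.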

NOMO1 [2] = assay: as above
How it was run: as §1

P12-Ichikawa [3] = assay: as above
How it was run: as §1

SEM cells [4] = assay: cell viability relative to DMSO control; higher = less cytotoxic
How it was run: (§2)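 Library compounds in DMSO were pin-dosed into 1536-well plates (5 μl) holding NOMO1 or SEM (500 cells/well) or P12-Ichikawa (1000 cells/well) leukemia cells, across an 11-point threefold series of 47 μM to 0.79 nM. Each cell line had been adapted for at least four passages in each medium. CellTiter-Glo One luminescence was read after 48 h at 37°C. Viability is the per-plate percentage relative to DMSO wells, with cell-free wells as background.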

NOMO1 [5] = assay: as above
How it was run: as §2

P12-Ichikawa [6] = assay: as above
How it was run: as §2

C\C1=C\C(=O)C2=C(C=CC=C2)C1=O
AUC of viability dose-response curve
Details	NOMO1 [2]	P12-Ichikawa [3]	SEM cells [1]
HPLM + 10% dialyzed FBS	466	465	464
RPMI 5 mM glucose + 10% FBS	460	440	458
RPMI 5 mM glucose + 10% dialyzed FBS	456	468	435

cell viability [%]
Details	NOMO1 [5]	P12-Ichikawa [6]	SEM cells [4]
HPLM + 10% dialyzed FBS, 0.000781 µM	100	108	95.9
HPLM + 10% dialyzed FBS, 0.00234 µM	122	104	110
HPLM + 10% dialyzed FBS, 0.00702 µM	117	118	102
HPLM + 10% dialyzed FBS, 0.0211 µM	134	125	109
HPLM + 10% dialyzed FBS, 0.0632 µM	132	128	126
HPLM + 10% dialyzed FBS, 0.19 µM	126	120	123
HPLM + 10% dialyzed FBS, 0.569 µM	126	127	106
HPLM + 10% dialyzed FBS, 1.71 µM	134	125	114
HPLM + 10% dialyzed FBS, 5.12 µM	128	122	111
HPLM + 10% dialyzed FBS, 15.4 µM	131	116	96.1
HPLM + 10% dialyzed FBS, 46.1 µM	127	123	80.4
RPMI 5 mM glucose + 10% FBS, 0.000781 µM	116	107	104
RPMI 5 mM glucose + 10% FBS, 0.00234 µM	108	119	101
RPMI 5 mM glucose + 10% FBS, 0.00702 µM	120	109	113
RPMI 5 mM glucose + 10% FBS, 0.0211 µM	125	130	111
RPMI 5 mM glucose + 10% FBS, 0.0632 µM	133	125	113
RPMI 5 mM glucose + 10% FBS, 0.19 µM	133	118	106
RPMI 5 mM glucose + 10% FBS, 0.569 µM	137	125	101
RPMI 5 mM glucose + 10% FBS, 1.71 µM	124	135	89.2
RPMI 5 mM glucose + 10% FBS, 5.12 µM	129	134	95.3
RPMI 5 mM glucose + 10% FBS, 15.4 µM	125	139	95.9
RPMI 5 mM glucose + 10% FBS, 46.1 µM	140	131	59.9
RPMI 5 mM glucose + 10% dialyzed FBS, 0.000781 µM	119	119	94.7
RPMI 5 mM glucose + 10% dialyzed FBS, 0.00234 µM	117	122	102
RPMI 5 mM glucose + 10% dialyzed FBS, 0.00702 µM	131	121	114
RPMI 5 mM glucose + 10% dialyzed FBS, 0.0211 µM	130	130	114
RPMI 5 mM glucose + 10% dialyzed FBS, 0.0632 µM	140	127	112
RPMI 5 mM glucose + 10% dialyzed FBS, 0.19 µM	128	137	111
RPMI 5 mM glucose + 10% dialyzed FBS, 0.569 µM	135	128	117
RPMI 5 mM glucose + 10% dialyzed FBS, 1.71 µM	151	118	111
RPMI 5 mM glucose + 10% dialyzed FBS, 5.12 µM	128	120	84.3
RPMI 5 mM glucose + 10% dialyzed FBS, 15.4 µM	148	131	71.3
RPMI 5 mM glucose + 10% dialyzed FBS, 46.1 µM	134	128	50.6

CC(C)(C)C(=O)OCOP(=O)(COCCn1cnc2c(N)ncnc21)OCOC(=O)C(C)(C)C
AUC of viability dose-response curve
Details	NOMO1 [2]	P12-Ichikawa [3]	SEM cells [1]
HPLM + 10% dialyzed FBS	306	316	291
RPMI 5 mM glucose + 10% FBS	259	287	238
RPMI 5 mM glucose + 10% dialyzed FBS	278	309	235

cell viability [%]
Details	NOMO1 [5]	P12-Ichikawa [6]	SEM cells [4]
HPLM + 10% dialyzed FBS, 0.000781 µM	86.9	97.4	84.1
HPLM + 10% dialyzed FBS, 0.00234 µM	99.5	110	112
HPLM + 10% dialyzed FBS, 0.00702 µM	93.6	103	104
HPLM + 10% dialyzed FBS, 0.0211 µM	108	103	101
HPLM + 10% dialyzed FBS, 0.0632 µM	88.3	73.1	71.9
HPLM + 10% dialyzed FBS, 0.19 µM	62.2	73.5	51
HPLM + 10% dialyzed FBS, 0.569 µM	68.2	70.2	68.1
HPLM + 10% dialyzed FBS, 1.71 µM	33.9	50.1	38.1
HPLM + 10% dialyzed FBS, 5.12 µM	32.2	27.4	25.6
HPLM + 10% dialyzed FBS, 15.4 µM	18.9	19	14.1
HPLM + 10% dialyzed FBS, 46.1 µM	2.01	29.2	7.08
RPMI 5 mM glucose + 10% FBS, 0.000781 µM	109	94.7	108
RPMI 5 mM glucose + 10% FBS, 0.00234 µM	96	104	101
RPMI 5 mM glucose + 10% FBS, 0.00702 µM	98.2	92.3	108
RPMI 5 mM glucose + 10% FBS, 0.0211 µM	98.6	94.6	88
RPMI 5 mM glucose + 10% FBS, 0.0632 µM	70.3	69.5	61.7
RPMI 5 mM glucose + 10% FBS, 0.19 µM	61.4	72.9	42.7
RPMI 5 mM glucose + 10% FBS, 0.569 µM	44.4	52.6	51.4
RPMI 5 mM glucose + 10% FBS, 1.71 µM	19.9	29.9	26.5
RPMI 5 mM glucose + 10% FBS, 5.12 µM	15.8	15	13
RPMI 5 mM glucose + 10% FBS, 15.4 µM	9.1	10.7	7.59
RPMI 5 mM glucose + 10% FBS, 46.1 µM	2.21	19.6	2.97
RPMI 5 mM glucose + 10% dialyzed FBS, 0.000781 µM	101	89.3	86.6
RPMI 5 mM glucose + 10% dialyzed FBS, 0.00234 µM	93.6	96.3	95.4
RPMI 5 mM glucose + 10% dialyzed FBS, 0.00702 µM	91.9	94.7	95.3
RPMI 5 mM glucose + 10% dialyzed FBS, 0.0211 µM	93.7	86.4	85.1
RPMI 5 mM glucose + 10% dialyzed FBS, 0.0632 µM	78.5	82.1	48.5
RPMI 5 mM glucose + 10% dialyzed FBS, 0.19 µM	66.9	65	39.8
RPMI 5 mM glucose + 10% dialyzed FBS, 0.569 µM	47.7	61.6	42.2
RPMI 5 mM glucose + 10% dialyzed FBS, 1.71 µM	28.6	46.7	23.2
RPMI 5 mM glucose + 10% dialyzed FBS, 5.12 µM	14.9	28.8	13
RPMI 5 mM glucose + 10% dialyzed FBS, 15.4 µM	14.2	28.8	10.9
RPMI 5 mM glucose + 10% dialyzed FBS, 46.1 µM	2.41	27.4	3.51

Cc1nccn1CC1CCc2c(c3ccccc3n2C)C1=O (stereo unspecified)
AUC of viability dose-response curve
Details	NOMO1 [2]	P12-Ichikawa [3]	SEM cells [1]
HPLM + 10% dialyzed FBS	447	448	441
RPMI 5 mM glucose + 10% FBS	465	422	453
RPMI 5 mM glucose + 10% dialyzed FBS	462	462	429

cell viability [%]
Details	NOMO1 [5]	P12-Ichikawa [6]	SEM cells [4]
HPLM + 10% dialyzed FBS, 0.000781 µM	–	124	118
HPLM + 10% dialyzed FBS, 0.00234 µM	–	125	120
HPLM + 10% dialyzed FBS, 0.00702 µM	–	121	135
HPLM + 10% dialyzed FBS, 0.0211 µM	–	128	132
HPLM + 10% dialyzed FBS, 0.0632 µM	–	127	142
HPLM + 10% dialyzed FBS, 0.19 µM	–	127	120
HPLM + 10% dialyzed FBS, 0.569 µM	–	111	110
HPLM + 10% dialyzed FBS, 1.71 µM	–	106	117
HPLM + 10% dialyzed FBS, 5.12 µM	–	103	104
HPLM + 10% dialyzed FBS, 15.4 µM	–	112	116
HPLM + 10% dialyzed FBS, 46.1 µM	–	108	92
RPMI 5 mM glucose + 10% FBS, 0.000781 µM	115	–	121
RPMI 5 mM glucose + 10% FBS, 0.00234 µM	108	–	119
RPMI 5 mM glucose + 10% FBS, 0.00702 µM	114	–	127
RPMI 5 mM glucose + 10% FBS, 0.0211 µM	122	–	114
RPMI 5 mM glucose + 10% FBS, 0.0632 µM	105	–	115
RPMI 5 mM glucose + 10% FBS, 0.19 µM	105	–	105
RPMI 5 mM glucose + 10% FBS, 0.569 µM	111	–	127
RPMI 5 mM glucose + 10% FBS, 1.71 µM	111	–	104
RPMI 5 mM glucose + 10% FBS, 5.12 µM	108	–	108
RPMI 5 mM glucose + 10% FBS, 15.4 µM	112	–	109
RPMI 5 mM glucose + 10% FBS, 46.1 µM	105	–	85.4
RPMI 5 mM glucose + 10% dialyzed FBS, 0.000781 µM	113	115	–
RPMI 5 mM glucose + 10% dialyzed FBS, 0.00234 µM	116	124	–
RPMI 5 mM glucose + 10% dialyzed FBS, 0.00702 µM	115	124	–
RPMI 5 mM glucose + 10% dialyzed FBS, 0.0211 µM	121	125	–
RPMI 5 mM glucose + 10% dialyzed FBS, 0.0632 µM	118	126	–
RPMI 5 mM glucose + 10% dialyzed FBS, 0.19 µM	112	112	–
RPMI 5 mM glucose + 10% dialyzed FBS, 0.569 µM	113	117	–
RPMI 5 mM glucose + 10% dialyzed FBS, 1.71 µM	111	118	–
RPMI 5 mM glucose + 10% dialyzed FBS, 5.12 µM	109	116	–
RPMI 5 mM glucose + 10% dialyzed FBS, 15.4 µM	106	114	–
RPMI 5 mM glucose + 10% dialyzed FBS, 46.1 µM	104	105	–
